Results reported in patent US5629289A, “Cyclic peptide antifungal agents” (Eli Lilly and Company, priority 1995, dated 1997).
Values after ≈ are worked out from the molar mass of the structure shown. *1 amine or outer side, *2 acyl side, *3 side chain or, on linkers, in order; H or OH if unused. Where a SMILES comes first, the peptide text is derived from it. Bridges are numbered along the chain shown (N, C = ends). [ ]: non-standard residue; d: D form. The star is where a group is joined. ξ: configuration not given here. pTerphenylCO(4''-OnC5H11) = CCCCCOc1ccc(-c2ccc(-c3ccc(C(=O)*)cc3)cc2)cc1; ξOrn(4ξ-OH) = O=C(C(CC(O)CN[*:3])N[*:1])[*:2]; ξhTyr(βOH) = NC(C(=O)O)C(O)Cc1ccc(O)cc1; ξPro(3ξ-OH,4ξ-Me) = CC1CNC(C(=O)O)C1O; ξHyp = O=C(O)C1CC(O)CN1

System: C. albicans
Type: cell-based
Procedure: Antifungal activity of a test compound is determined in vitro by obtaining the minimum inhibitory concentration (MIC) of the compound using a standard agar dilution test or a disc-diffusion test. The compound is then tested in vivo (in mice) to determine the effective dose of the test compound for controlling a systemic fungal infection. Accordingly, the compound prepared in Example 1C was tested for antifungal activity against C. albicans.

minimal inhibitory concentration (MIC) against C. albicans: 0.312 µg/mL (≈ 0.306 µM)
SMILES: CCCCCOc1ccc(-c2ccc(-c3ccc(C(=O)NC4CC(O)CNC(=O)C5C(O)C(C)CN5C(=O)CNC(=O)C(C(O)Cc5ccc(O)cc5)NC(=O)C5CC(O)CN5C(=O)CNC4=O)cc3)cc2)cc1 (stereo not shown) [Example 1C] ({pTerphenylCO(4''-OnC5H11)}-[ξOrn(4ξ-OH)]G[ξHyp][ξhTyr(βOH)]G[ξPro(3ξ-OH,4ξ-Me)]; lactam 1-C)
